Results reported in patent US20160158317A1, “Antimicrobial Peptide Variants and Polynucleotides Encoding Same” (Adenium Biotech A/S, priority 2010, published 2016).
Where a SMILES comes first, the peptide text is derived from it. Bridges are numbered along the chain shown (N, C = ends).

Assay: Determination of the protein binding (90% serum, 30 kDa filter, HPLC)
Assay type: in vitro ADME
Conditions: serum
Experimental: Protein binding assays were performed as follows. The purified peptides were mixed with 90% serum and centrifuged through a 30 kDa filter. The ultra-filtrate and the non filtrated serum samples were quantified by HPLC measurements and the protein binding was subsequently calculated.

Row | SMILES | fraction unbound
1 | CC(C)[C@@H]1NC(=O)CNC(=O)[C@H](CC(N)=O)NC(=O)[C@H](CCCNC(=N)N)NC(=O)[C@H](Cc2ccc(O)cc2)NC(=O)[C@H](C(C)C)NC(=O)[C@@H]2CSSC[C@H](NC(=O)[C@H](C(C)C)NC(=O)[C@H](CCCNC(=N)N)NC1=O)C(=O)N[C@@H](Cc1ccc(O)cc1)C(=O)N[C@@H](CCCNC(=N)N)C(=O)N[C@@H](CCCNC(=N)N)C(=O)N[C@H](C(=O)N[C@@H](CC(N)=O)C(=O)O)CSSC[C@H](NC(=O)[C@H](Cc1ccccc1)NC(=O)CN)C(=O)N[C@@H](Cc1c[nH]c3ccccc13)C(=O)N[C@@H](CCCNC(=N)N)C(=O)N[C@@H](C)C(=O)N2 [compound 72] (H-GFCWRACVYRNGVRVCYRRCN-OH; disulfide 3-20, 7-16 (inferred); N-terminus and C-terminus assumed) | 0.03
2 | CC(C)[C@@H]1NC(=O)CNC(=O)[C@H](CC(N)=O)NC(=O)[C@H](CCCNC(=N)N)NC(=O)[C@H](Cc2ccc(O)cc2)NC(=O)[C@H](Cc2c[nH]cn2)NC(=O)[C@@H]2CSSC[C@H](NC(=O)[C@H](C(C)C)NC(=O)[C@H](CCCNC(=N)N)NC1=O)C(=O)N[C@@H](Cc1ccc(O)cc1)C(=O)N[C@@H](CCCNC(=N)N)C(=O)N[C@@H](CCCNC(=N)N)C(=O)N[C@H](C(=O)N[C@@H](CC(N)=O)C(=O)O)CSSC[C@H](NC(=O)[C@H](Cc1ccccc1)NC(=O)CN)C(=O)N[C@@H](Cc1c[nH]c3ccccc13)C(=O)N[C@@H](CCCNC(=N)N)C(=O)N[C@@H](C(C)C)C(=O)N2 [compound 74] (H-GFCWRVCHYRNGVRVCYRRCN-OH; disulfide 3-20, 7-16 (inferred); N-terminus and C-terminus assumed) | 0.01
3 | CC(C)[C@@H]1NC(=O)CNC(=O)[C@H](CC(N)=O)NC(=O)[C@H](CCCNC(=N)N)NC(=O)[C@H](Cc2ccc(O)cc2)NC(=O)[C@H](C(C)C)NC(=O)[C@@H]2CSSC[C@H](NC(=O)[C@H](C(C)C)NC(=O)[C@H](CCCNC(=N)N)NC1=O)C(=O)N[C@@H](Cc1c[nH]cn1)C(=O)N[C@@H](CCCNC(=N)N)C(=O)N[C@@H](CCCNC(=N)N)C(=O)N[C@H](C(=O)N[C@@H](CC(N)=O)C(=O)O)CSSC[C@H](NC(=O)[C@H](Cc1ccccc1)NC(=O)CN)C(=O)N[C@@H](Cc1c[nH]c3ccccc13)C(=O)N[C@@H](CCCNC(=N)N)C(=O)N[C@@H](C(C)C)C(=O)N2 [compound 76] (H-GFCWRVCVYRNGVRVCHRRCN-OH; disulfide 3-20, 7-16 (inferred); N-terminus and C-terminus assumed) | 0.08
4 | CC(C)[C@@H]1NC(=O)[C@@H]2CSSC[C@H](NC(=O)[C@H](C(C)C)NC(=O)[C@H](CCCNC(=N)N)NC(=O)[C@H](CCCCN)NC(=O)CNC(=O)[C@H](CC(N)=O)NC(=O)[C@H](CCCNC(=N)N)NC(=O)[C@H](Cc3ccc(O)cc3)NC1=O)C(=O)N[C@@H](Cc1ccc(O)cc1)C(=O)N[C@@H](CCCNC(=N)N)C(=O)N[C@@H](CCCNC(=N)N)C(=O)N[C@H](C(=O)N[C@@H](CC(N)=O)C(=O)O)CSSC[C@H](NC(=O)[C@H](Cc1ccccc1)NC(=O)CN)C(=O)N[C@@H](Cc1c[nH]c3ccccc13)C(=O)N[C@@H](Cc1ccc(O)cc1)C(=O)N[C@@H](C)C(=O)N2 [compound 80] (H-GFCWYACVYRNGKRVCYRRCN-OH; disulfide 3-20, 7-16 (inferred); N-terminus and C-terminus assumed) | 0.04
5 | CC(C)[C@@H]1NC(=O)CNC(=O)[C@H](CC(N)=O)NC(=O)[C@H](CCCNC(=N)N)NC(=O)[C@H](CCCCN)NC(=O)[C@H](C(C)C)NC(=O)[C@@H]2CSSC[C@H](NC(=O)[C@H](CO)NC(=O)[C@H](CCCNC(=N)N)NC1=O)C(=O)N[C@@H](Cc1ccc(O)cc1)C(=O)N[C@@H](CCCNC(=N)N)C(=O)N[C@@H](CCCNC(=N)N)C(=O)N[C@H](C(=O)N[C@@H](CC(N)=O)C(=O)O)CSSC[C@H](NC(=O)[C@H](Cc1ccccc1)NC(=O)CN)C(=O)N[C@@H](Cc1c[nH]c3ccccc13)C(=O)N[C@@H](Cc1ccc(O)cc1)C(=O)N[C@@H](C(C)C)C(=O)N2 [compound 87] (H-GFCWYVCVKRNGVRSCYRRCN-OH; disulfide 3-20, 7-16 (inferred); N-terminus and C-terminus assumed) | 0.07
6 | CC(C)[C@@H]1NC(=O)CNC(=O)[C@H](CC(N)=O)NC(=O)[C@H](CCCCN)NC(=O)[C@H](Cc2ccc(O)cc2)NC(=O)[C@H](C(C)C)NC(=O)[C@@H]2CSSC[C@H](NC(=O)[C@H](C(C)C)NC(=O)[C@H](CCCNC(=N)N)NC1=O)C(=O)N[C@@H](Cc1c[nH]cn1)C(=O)N[C@@H](CCCNC(=N)N)C(=O)N[C@@H](CCCNC(=N)N)C(=O)N[C@H](C(=O)N[C@@H](CC(N)=O)C(=O)O)CSSC[C@H](NC(=O)[C@H](Cc1ccccc1)NC(=O)CN)C(=O)N[C@@H](Cc1c[nH]c3ccccc13)C(=O)N[C@@H](Cc1ccc(O)cc1)C(=O)N[C@@H](C(C)C)C(=O)N2 [compound 89] (H-GFCWYVCVYKNGVRVCHRRCN-OH; disulfide 3-20, 7-16 (inferred); N-terminus and C-terminus assumed) | 0.1
7 | CC(C)[C@@H]1NC(=O)CNC(=O)[C@H](CC(N)=O)NC(=O)[C@H](CCCNC(=N)N)NC(=O)[C@H](Cc2ccc(O)cc2)NC(=O)[C@H](C(C)C)NC(=O)[C@@H]2CSSC[C@H](NC(=O)[C@H](C(C)C)NC(=O)[C@H](CCCNC(=N)N)NC1=O)C(=O)N[C@@H](Cc1c[nH]cn1)C(=O)N[C@@H](CCCNC(=N)N)C(=O)N[C@@H](CCCNC(=N)N)C(=O)N[C@H](C(=O)N[C@@H](CC(N)=O)C(=O)O)CSSC[C@H](NC(=O)[C@H](Cc1ccccc1)NC(=O)[C@@H](N)Cc1c[nH]cn1)C(=O)N[C@@H](Cc1c[nH]c3ccccc13)C(=O)N[C@@H](CC(N)=O)C(=O)N[C@@H](C(C)C)C(=O)N2 [compound 98] (H-HFCWNVCVYRNGVRVCHRRCN-OH; disulfide 3-20, 7-16 (inferred); N-terminus and C-terminus assumed) | 0.23
8 | CC(C)[C@@H]1NC(=O)CNC(=O)[C@H](CC(N)=O)NC(=O)[C@H](CCCNC(=N)N)NC(=O)[C@H](Cc2ccc(O)cc2)NC(=O)[C@H](C(C)C)NC(=O)[C@@H]2CSSC[C@H](NC(=O)[C@H](C(C)C)NC(=O)[C@H](CCCNC(=N)N)NC1=O)C(=O)N[C@@H](Cc1c[nH]cn1)C(=O)N[C@@H](CCCNC(=N)N)C(=O)N[C@@H](CCCNC(=N)N)C(=O)N[C@H](C(=O)N[C@@H](CC(N)=O)C(=O)O)CSSC[C@H](NC(=O)[C@H](Cc1ccccc1)NC(=O)[C@@H](N)CCCCN)C(=O)N[C@@H](Cc1c[nH]c3ccccc13)C(=O)N[C@@H](CC(N)=O)C(=O)N[C@@H](C(C)C)C(=O)N2 [compound 100] (H-KFCWNVCVYRNGVRVCHRRCN-OH; disulfide 3-20, 7-16 (inferred); N-terminus and C-terminus assumed) | 0.22
9 | CSCC[C@H](N)C(=O)N[C@@H](Cc1ccccc1)C(=O)N[C@H]1CSSC[C@@H](C(=O)N[C@@H](CC(N)=O)C(=O)O)NC(=O)[C@H](CCCNC(=N)N)NC(=O)[C@H](CCCNC(=N)N)NC(=O)[C@H](Cc2c[nH]cn2)NC(=O)[C@@H]2CSSC[C@H](NC(=O)[C@H](C(C)C)NC(=O)[C@H](CC(N)=O)NC(=O)[C@H](Cc3c[nH]c4ccccc34)NC1=O)C(=O)N[C@@H](C(C)C)C(=O)N[C@@H](Cc1ccc(O)cc1)C(=O)N[C@@H](CCCNC(=N)N)C(=O)N[C@@H](CC(N)=O)C(=O)NCC(=O)N[C@@H](C(C)C)C(=O)N[C@@H](CCCNC(=N)N)C(=O)N[C@@H](C(C)C)C(=O)N2 [compound 101] (H-MFCWNVCVYRNGVRVCHRRCN-OH; disulfide 3-20, 7-16 (inferred); N-terminus and C-terminus assumed) | 0.19
10 | CC(C)[C@@H]1NC(=O)CNC(=O)[C@H](CC(N)=O)NC(=O)[C@H](CCCNC(=N)N)NC(=O)[C@H](Cc2ccc(O)cc2)NC(=O)[C@H](C(C)C)NC(=O)[C@@H]2CSSC[C@H](NC(=O)[C@H](CO)NC(=O)[C@H](CCCNC(=N)N)NC1=O)C(=O)N[C@@H](Cc1ccc(O)cc1)C(=O)N[C@@H](CCCNC(=N)N)C(=O)N[C@@H](CCCNC(=N)N)C(=O)N[C@H](C(=O)N[C@@H](CC(N)=O)C(=O)O)CSSC[C@H](NC(=O)[C@H](Cc1ccccc1)NC(=O)CN)C(=O)N[C@@H](C)C(=O)N[C@@H](CCCCN)C(=O)N[C@@H](C(C)C)C(=O)N2 [compound 120] (H-GFCAKVCVYRNGVRSCYRRCN-OH; disulfide 3-20, 7-16 (inferred); N-terminus and C-terminus assumed) | 0.31
11 | CC(C)[C@@H]1NC(=O)CNC(=O)[C@H](CC(N)=O)NC(=O)[C@H](CCCNC(=N)N)NC(=O)[C@H](Cc2ccc(O)cc2)NC(=O)[C@H](C(C)C)NC(=O)[C@@H]2CSSC[C@H](NC(=O)[C@H](CO)NC(=O)[C@H](CCCNC(=N)N)NC1=O)C(=O)N[C@@H](Cc1ccc(O)cc1)C(=O)N[C@@H](CCCNC(=N)N)C(=O)N[C@@H](CCCNC(=N)N)C(=O)N[C@H](C(=O)N[C@@H](CC(N)=O)C(=O)O)CSSC[C@H](NC(=O)[C@H](Cc1ccccc1)NC(=O)CN)C(=O)N[C@@H](C)C(=O)N[C@@H](CCCNC(=N)N)C(=O)N[C@@H](C(C)C)C(=O)N2 [compound 122] (H-GFCARVCVYRNGVRSCYRRCN-OH; disulfide 3-20, 7-16) | 0.19
12 | CC(C)[C@@H]1NC(=O)CNC(=O)[C@H](CC(N)=O)NC(=O)[C@H](CCCNC(=N)N)NC(=O)[C@H](CCCCN)NC(=O)[C@H](C(C)C)NC(=O)[C@@H]2CSSC[C@H](NC(=O)[C@H](C(C)C)NC(=O)[C@H](CCCNC(=N)N)NC1=O)C(=O)N[C@@H](Cc1ccc(O)cc1)C(=O)N[C@@H](CCCNC(=N)N)C(=O)N[C@@H](CCCNC(=N)N)C(=O)N[C@H](C(=O)N[C@@H](CC(N)=O)C(=O)O)CSSC[C@H](NC(=O)[C@H](Cc1ccccc1)NC(=O)CN)C(=O)N[C@@H](C)C(=O)N[C@@H](CCCNC(=N)N)C(=O)N[C@@H](C(C)C)C(=O)N2 [compound 125] (H-GFCARVCVKRNGVRVCYRRCN-OH; disulfide 3-20, 7-16 (inferred); N-terminus and C-terminus assumed) | 0.1
